pKi: −log10 of the molar value.
Tests used:
[1] = molecular target: D(1A) dopamine receptor (Homo sapiens, UniProt P21728); test: Binding affinity to dopamine D1 receptor
[2] = molecular target: D(2) dopamine receptor (Homo sapiens, UniProt P14416); test: Binding affinity to dopamine D2 receptor
[3] = molecular target: D(1B) dopamine receptor (Homo sapiens, UniProt P21918); test: Binding affinity to dopamine D5 receptor
[4] = molecular target: T1, D(4) dopamine receptor (Homo sapiens, UniProt P21917); test: Binding affinity to dopamine D4 receptor
T1 sequence (P21917 whole entry): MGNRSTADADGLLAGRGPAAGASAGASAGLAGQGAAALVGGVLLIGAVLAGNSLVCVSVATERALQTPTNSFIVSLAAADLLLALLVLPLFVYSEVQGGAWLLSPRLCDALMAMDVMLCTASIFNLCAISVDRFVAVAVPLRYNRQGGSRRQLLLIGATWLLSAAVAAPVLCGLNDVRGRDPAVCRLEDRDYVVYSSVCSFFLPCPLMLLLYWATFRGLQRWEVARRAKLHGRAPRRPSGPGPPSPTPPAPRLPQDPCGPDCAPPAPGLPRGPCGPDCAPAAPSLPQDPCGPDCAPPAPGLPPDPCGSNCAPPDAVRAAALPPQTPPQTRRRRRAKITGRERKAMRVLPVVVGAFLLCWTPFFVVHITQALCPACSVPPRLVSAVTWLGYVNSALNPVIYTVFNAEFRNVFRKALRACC

[5] = Selectivity ratio, Ki for dopamine D1 receptor to Ki for dopamine D2 receptor
[6] = Oral bioavailability in rat; assay type: ADME, organism-based; details: in vivo
[7] = AUC in rat; assay type: ADME, organism-based; details: plasma

D(2) dopamine receptor, sequence (P14416 whole entry): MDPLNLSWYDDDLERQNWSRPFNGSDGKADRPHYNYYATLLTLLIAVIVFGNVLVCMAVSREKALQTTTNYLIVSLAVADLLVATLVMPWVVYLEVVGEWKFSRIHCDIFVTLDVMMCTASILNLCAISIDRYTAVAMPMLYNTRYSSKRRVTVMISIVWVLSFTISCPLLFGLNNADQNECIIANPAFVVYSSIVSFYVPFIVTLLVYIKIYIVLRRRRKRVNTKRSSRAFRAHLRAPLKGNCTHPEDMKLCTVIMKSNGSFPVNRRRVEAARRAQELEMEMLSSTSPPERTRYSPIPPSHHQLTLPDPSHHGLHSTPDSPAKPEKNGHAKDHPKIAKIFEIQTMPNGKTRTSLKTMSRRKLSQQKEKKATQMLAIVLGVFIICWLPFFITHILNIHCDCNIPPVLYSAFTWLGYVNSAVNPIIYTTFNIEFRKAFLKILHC
D(1A) dopamine receptor, sequence (P21728 whole entry): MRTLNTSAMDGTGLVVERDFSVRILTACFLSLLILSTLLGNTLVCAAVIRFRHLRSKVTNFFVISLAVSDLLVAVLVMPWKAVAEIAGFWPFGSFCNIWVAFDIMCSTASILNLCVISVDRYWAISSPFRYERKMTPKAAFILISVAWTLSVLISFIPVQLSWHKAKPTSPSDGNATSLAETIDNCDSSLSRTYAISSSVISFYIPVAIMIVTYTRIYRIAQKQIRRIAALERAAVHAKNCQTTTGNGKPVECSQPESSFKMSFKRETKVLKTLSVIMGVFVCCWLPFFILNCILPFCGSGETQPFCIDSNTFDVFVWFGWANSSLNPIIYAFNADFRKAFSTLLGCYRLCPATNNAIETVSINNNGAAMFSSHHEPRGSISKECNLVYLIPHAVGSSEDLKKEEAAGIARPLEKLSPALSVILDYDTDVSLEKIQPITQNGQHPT
D(1B) dopamine receptor, sequence (P21918 whole entry): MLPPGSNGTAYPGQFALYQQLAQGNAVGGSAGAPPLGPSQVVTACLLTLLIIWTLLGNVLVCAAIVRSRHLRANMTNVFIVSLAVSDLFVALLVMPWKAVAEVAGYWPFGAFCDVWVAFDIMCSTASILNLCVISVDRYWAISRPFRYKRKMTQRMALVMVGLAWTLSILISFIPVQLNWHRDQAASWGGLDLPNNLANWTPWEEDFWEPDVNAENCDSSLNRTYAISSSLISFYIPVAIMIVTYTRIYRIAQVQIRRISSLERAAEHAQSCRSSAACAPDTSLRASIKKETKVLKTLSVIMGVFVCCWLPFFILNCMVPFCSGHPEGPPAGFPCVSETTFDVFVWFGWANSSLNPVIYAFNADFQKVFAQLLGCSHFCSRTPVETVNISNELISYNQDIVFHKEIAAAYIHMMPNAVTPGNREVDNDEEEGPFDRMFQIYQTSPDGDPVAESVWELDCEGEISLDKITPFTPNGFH

Row | Structure (SMILES) | pKi [1] | pKi [2] | pKi [3] | pKi [4] | Ratio Ki [5] | bioavailability [6] [%] | AUC [7] [ng·h/mL]
1 | CN1CCc2cc(Cl)c(O)cc2[C@@H](c2ccc(CN(C)S(C)(=O)=O)cc2)C1 | 9.30 | 5.22 | – | – | – | – | –
2 | CC(=O)N(Cc1ccc([C@H]2CN(C)CCc3cc(Cl)c(O)cc32)cc1)C1CCC1 | 9.70 | 6.80 | 7.89 | < 5.00 | – | – | –
3 | CN1CCc2cc(Cl)c(O)cc2[C@H]2c3cc(CN4CCN(c5ccccn5)CC4)ccc3CC[C@@H]21 | 6.82 | 8.89 | – | – | 117 | – | –
4 | CN1CCc2cc(Cl)c(O)cc2[C@H]2c3ccccc3CC[C@@H]21 [ECOPIPAM] | – | – | – | – | – | 0.6 | 156
5 | CCNC(=O)Nc1cccc2c1CC[C@H]1[C@H]2c2cc(O)c(Cl)cc2CCN1C | 8.62 | 6.05 | – | – | – | – | –
6 | CN1CCc2cc(Cl)c(O)cc2[C@H]2c3cccc(N)c3CC[C@@H]21 | 8.55 | 5.68 | 8.15 | < 5.00 | – | – | –
7 | CCNC(=O)Nc1ccc2c(c1)CC[C@H]1[C@H]2c2cc(O)c(Cl)cc2CCN1C | 8.82 | 5.22 | 8.15 | < 5.00 | – | – | –
8 | CN1CCc2cc(Cl)c(O)cc2[C@@H](c2ccc(CNc3ccccc3)cc2)C1 | 8.70 | 5.70 | – | – | – | – | –
9 | CN1CCc2cc(Cl)c(O)cc2[C@@H](c2ccc(CN(C3CCC3)S(C)(=O)=O)cc2)C1 | 9.30 | 5.70 | 8.23 | < 5.00 | – | – | –
10 | CN1CCc2cc(Cl)c(O)cc2[C@H]2c3ccc(NS(C)(=O)=O)cc3CC[C@@H]21 | 9.30 | 5.52 | 8.24 | < 5.00 | – | 29 | 2490
11 | CN1CCc2cc(Cl)c(O)cc2[C@H]2c3cc(CN4CCCCC4)ccc3CC[C@@H]21 | 6.65 | 7.59 | – | – | 8.7 | – | –
12 | CN1CCc2cc(Cl)c(O)cc2[C@@H](c2ccc(CNC3CCC3)cc2)C1 | – | 5.70 | 8.41 | < 5.00 | – | – | –
13 | CN1CCc2cc(Cl)c(O)cc2[C@H]2c3cccc(NS(C)(=O)=O)c3CC[C@@H]21 | 8.33 | 6.00 | – | – | – | – | –
14 | CCOC(=O)Nc1ccc2c(c1)CC[C@H]1[C@H]2c2cc(O)c(Cl)cc2CCN1C | 8.85 | 5.41 | 8.48 | < 5.00 | – | – | –
15 | CN1CCc2cc(Cl)c(O)cc2[C@H]2c3ccc(NC(=O)C4CC4)cc3CC[C@@H]21 | 8.64 | < 5.00 | – | – | – | – | –
16 | CN1CCc2cc(Cl)c(O)cc2[C@@H](c2ccc(CN(C)S(=O)(=O)c3ccccc3)cc2)C1 | 9.22 | 6.48 | 8.92 | 5.36 | – | – | –
17 | CCS(=O)(=O)Nc1ccc2c(c1)CC[C@H]1[C@H]2c2cc(O)c(Cl)cc2CCN1C | 9.15 | 5.48 | 8.25 | < 5.00 | – | – | –
18 | CCC(=O)Nc1cccc2c1CC[C@H]1[C@H]2c2cc(O)c(Cl)cc2CCN1C | 8.64 | 6.30 | – | – | – | – | –
19 | CCS(=O)(=O)Nc1cccc2c1CC[C@H]1[C@H]2c2cc(O)c(Cl)cc2CCN1C | 8.24 | 6.21 | – | – | – | – | –
20 | CN1CCc2cc(Cl)c(O)cc2[C@H]2c3ccc(NC(=O)Nc4c(Cl)cccc4Cl)cc3CC[C@@H]21 | 9.15 | 5.96 | – | – | – | – | –
21 | CN1CCc2cc(Cl)c(O)cc2[C@H]2c3cccc(NC(=O)Nc4c(Cl)cccc4Cl)c3CC[C@@H]21 | 8.15 | 6.25 | – | – | – | – | –
22 | CN1CCc2cc(Cl)c(O)cc2[C@@H](c2ccc(CN(Cc3ccccc3)c3ccc(F)cc3F)cc2)C1 | 9.15 | 6.26 | – | – | – | – | –
23 | CN1CCc2cc(Cl)c(O)cc2[C@H]2c3ccc(N)cc3CC[C@@H]21 | 8.15 | 5.27 | 8.08 | < 5.00 | – | – | –
24 | CN1CCc2cc(Cl)c(O)cc2[C@H]2c3cccc(NC(=O)C4CC4)c3CC[C@@H]21 | 8.24 | 5.67 | – | – | – | – | –
